Measured values as given in ChEMBL document CHEMBL1201862, “PubChem BioAssay data set” (2004).
Blank lines part the entries; values can stand above or below the compound they belong to. Activity calls are given as the source filed them.

Assays:
CAAX prenyl protease 2 = molecular target: T1, CAAX prenyl protease 2 (Saccharomyces cerevisiae S288c, UniProt Q03530); type: biochemical
T1 sequence (Q03530 whole entry): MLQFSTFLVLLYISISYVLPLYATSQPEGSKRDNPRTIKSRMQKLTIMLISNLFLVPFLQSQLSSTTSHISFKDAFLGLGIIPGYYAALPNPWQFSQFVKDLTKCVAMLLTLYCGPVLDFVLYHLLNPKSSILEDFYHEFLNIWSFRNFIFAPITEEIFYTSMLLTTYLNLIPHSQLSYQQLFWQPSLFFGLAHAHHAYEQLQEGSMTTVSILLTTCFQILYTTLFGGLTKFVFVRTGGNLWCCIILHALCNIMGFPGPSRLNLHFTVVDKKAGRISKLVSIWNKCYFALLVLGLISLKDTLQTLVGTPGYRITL

Trypsin = Trypsin (Sus scrofa, UniProt P00761); assay: trypsin protease activity blockade – biochemical, quenched peptide fluorescence, cherry-pick, selectivity assay for Rce1 protease inhibitor project, dose response (AID 488789)
X-box-binding protein 1 = X-box-binding protein 1 (Homo sapiens, UniProt P17861); type: functional, Cricetulus griseus;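 also: confirmatory dose-response counter-screen serving a CHOP assay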
Chain of X-box-binding protein 1 (P17861 whole entry): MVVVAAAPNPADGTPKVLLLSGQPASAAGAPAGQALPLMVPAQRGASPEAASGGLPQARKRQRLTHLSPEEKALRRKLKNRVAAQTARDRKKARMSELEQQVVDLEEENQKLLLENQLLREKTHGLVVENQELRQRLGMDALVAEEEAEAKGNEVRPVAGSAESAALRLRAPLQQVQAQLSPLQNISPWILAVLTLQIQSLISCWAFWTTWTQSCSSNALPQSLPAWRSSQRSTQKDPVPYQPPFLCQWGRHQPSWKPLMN

[1] = molecular target: G-protein coupled receptor 35 (Homo sapiens, UniProt Q9HC97); assay: inhibition of zaprinast-stimulated GPR35 beta-arrestin translocation – imaging, U2OS, beta-arrestin-GFP, zaprinast agonist, primary screen (AID 2058); type: functional;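 also: antagonist potency meaning inhibition of agonist-induced arrestin redistribution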
Genome polyprotein = Genome polyprotein (dengue virus type 2, UniProt P29990); assay: flavivirus cap methylation enzyme inhibition – biochemical, confirmation dose response, primary screen (AID 588689); type: functional
Chain of Genome polyprotein (P29990 2492-3391 limits assumed): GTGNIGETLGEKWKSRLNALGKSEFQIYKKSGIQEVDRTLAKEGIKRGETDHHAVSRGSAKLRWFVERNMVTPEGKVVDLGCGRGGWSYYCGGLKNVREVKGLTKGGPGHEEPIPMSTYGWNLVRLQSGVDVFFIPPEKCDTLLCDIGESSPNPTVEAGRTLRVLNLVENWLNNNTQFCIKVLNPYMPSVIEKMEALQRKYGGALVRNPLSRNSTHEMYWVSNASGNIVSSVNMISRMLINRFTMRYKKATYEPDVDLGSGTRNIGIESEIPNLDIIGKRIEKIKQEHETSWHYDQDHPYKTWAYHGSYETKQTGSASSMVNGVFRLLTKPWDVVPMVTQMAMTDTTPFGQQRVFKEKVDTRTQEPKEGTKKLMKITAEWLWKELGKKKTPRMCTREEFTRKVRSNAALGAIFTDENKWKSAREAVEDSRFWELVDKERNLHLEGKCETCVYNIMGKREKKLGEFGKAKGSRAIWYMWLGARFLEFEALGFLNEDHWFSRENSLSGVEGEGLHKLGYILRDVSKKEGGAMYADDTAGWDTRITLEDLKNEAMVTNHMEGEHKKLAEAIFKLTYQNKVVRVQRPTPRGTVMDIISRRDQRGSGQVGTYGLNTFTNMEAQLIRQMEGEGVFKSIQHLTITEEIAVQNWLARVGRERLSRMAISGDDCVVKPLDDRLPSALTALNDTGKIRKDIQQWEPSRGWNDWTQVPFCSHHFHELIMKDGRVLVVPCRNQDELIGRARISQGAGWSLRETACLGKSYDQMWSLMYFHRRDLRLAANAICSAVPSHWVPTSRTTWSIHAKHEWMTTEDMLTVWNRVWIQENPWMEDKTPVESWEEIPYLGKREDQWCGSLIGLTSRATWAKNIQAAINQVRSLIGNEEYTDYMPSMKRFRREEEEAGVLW

Bcl-2-like protein 10 = molecular target: T2, Bcl-2-like protein 10 (Homo sapiens, UniProt Q9HD36); assay: Bcl-B/TR3 peptide binding disruption – biochemical, fluorescence polarization, FITC-TR3 peptide, selectivity assay for Bfl-1 inhibitor project, primary screen (AID 748);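 also: fluorescence polarization from a fluorescein-labelled TR3 peptide binding purified Bcl-B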
T2 sequence (Q9HD36 whole entry): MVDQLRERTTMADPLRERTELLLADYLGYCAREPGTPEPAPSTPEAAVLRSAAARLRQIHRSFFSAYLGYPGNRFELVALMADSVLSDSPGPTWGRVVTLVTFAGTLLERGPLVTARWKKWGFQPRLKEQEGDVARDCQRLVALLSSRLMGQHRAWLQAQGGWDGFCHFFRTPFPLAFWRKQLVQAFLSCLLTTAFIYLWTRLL

[2] = molecular target: Induced myeloid leukemia cell differentiation protein Mcl-1 (Homo sapiens, UniProt Q07820); assay: blockers of MCL1 binding to BIM peptide – biochemical, fluorescence polarization, BIM-BH3 peptide, 1536-well, dose response (AID 2217)
[3] = molecular target: T3, Tyrosine-protein phosphatase non-receptor type 7 (Homo sapiens, UniProt P35236); assay: HePTP tyrosine phosphatase activity blockers – biochemical, absorbance, leukemia target, primary screen (AID 521); type: functional
T3 sequence (P35236 whole entry): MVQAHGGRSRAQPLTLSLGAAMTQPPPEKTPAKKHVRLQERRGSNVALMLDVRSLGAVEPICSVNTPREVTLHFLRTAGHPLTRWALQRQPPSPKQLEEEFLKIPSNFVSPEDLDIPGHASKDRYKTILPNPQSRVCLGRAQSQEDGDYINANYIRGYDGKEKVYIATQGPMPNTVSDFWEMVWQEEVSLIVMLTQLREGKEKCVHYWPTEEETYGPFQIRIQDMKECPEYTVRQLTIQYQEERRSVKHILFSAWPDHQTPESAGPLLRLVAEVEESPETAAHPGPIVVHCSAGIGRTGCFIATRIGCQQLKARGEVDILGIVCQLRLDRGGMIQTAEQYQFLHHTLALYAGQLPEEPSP

Bcl-2-like protein 1 = Bcl-2-like protein 1 (Homo sapiens, UniProt Q07817); assay: blockers of BCLXL peptide binding – biochemical, fluorescence polarization, 1536-well, selectivity assay for MCL1 inhibitor project, dose response (AID 2218)
Chain of Bcl-2-like protein 1 (Q07817 whole entry): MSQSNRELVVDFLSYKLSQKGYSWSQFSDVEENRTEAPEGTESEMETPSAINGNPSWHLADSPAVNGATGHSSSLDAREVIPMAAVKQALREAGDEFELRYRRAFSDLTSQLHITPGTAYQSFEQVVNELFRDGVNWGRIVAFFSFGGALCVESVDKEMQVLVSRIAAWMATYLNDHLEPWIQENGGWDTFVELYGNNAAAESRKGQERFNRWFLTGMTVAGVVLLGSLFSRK

[4] = molecular target: T4, Voltage-gated N-type calcium channel alpha-1B subunit/Amyloid beta A4 precursor protein-binding family A member 1 (Homo sapiens, UniProt Q00975+Q02410); assay: disruptors of Mint-PDZ/N-type channel peptide interaction – biochemical, HTRF, SAR follow-up (AID 2489); type: functional
T4 sequence (Q00975 whole entry): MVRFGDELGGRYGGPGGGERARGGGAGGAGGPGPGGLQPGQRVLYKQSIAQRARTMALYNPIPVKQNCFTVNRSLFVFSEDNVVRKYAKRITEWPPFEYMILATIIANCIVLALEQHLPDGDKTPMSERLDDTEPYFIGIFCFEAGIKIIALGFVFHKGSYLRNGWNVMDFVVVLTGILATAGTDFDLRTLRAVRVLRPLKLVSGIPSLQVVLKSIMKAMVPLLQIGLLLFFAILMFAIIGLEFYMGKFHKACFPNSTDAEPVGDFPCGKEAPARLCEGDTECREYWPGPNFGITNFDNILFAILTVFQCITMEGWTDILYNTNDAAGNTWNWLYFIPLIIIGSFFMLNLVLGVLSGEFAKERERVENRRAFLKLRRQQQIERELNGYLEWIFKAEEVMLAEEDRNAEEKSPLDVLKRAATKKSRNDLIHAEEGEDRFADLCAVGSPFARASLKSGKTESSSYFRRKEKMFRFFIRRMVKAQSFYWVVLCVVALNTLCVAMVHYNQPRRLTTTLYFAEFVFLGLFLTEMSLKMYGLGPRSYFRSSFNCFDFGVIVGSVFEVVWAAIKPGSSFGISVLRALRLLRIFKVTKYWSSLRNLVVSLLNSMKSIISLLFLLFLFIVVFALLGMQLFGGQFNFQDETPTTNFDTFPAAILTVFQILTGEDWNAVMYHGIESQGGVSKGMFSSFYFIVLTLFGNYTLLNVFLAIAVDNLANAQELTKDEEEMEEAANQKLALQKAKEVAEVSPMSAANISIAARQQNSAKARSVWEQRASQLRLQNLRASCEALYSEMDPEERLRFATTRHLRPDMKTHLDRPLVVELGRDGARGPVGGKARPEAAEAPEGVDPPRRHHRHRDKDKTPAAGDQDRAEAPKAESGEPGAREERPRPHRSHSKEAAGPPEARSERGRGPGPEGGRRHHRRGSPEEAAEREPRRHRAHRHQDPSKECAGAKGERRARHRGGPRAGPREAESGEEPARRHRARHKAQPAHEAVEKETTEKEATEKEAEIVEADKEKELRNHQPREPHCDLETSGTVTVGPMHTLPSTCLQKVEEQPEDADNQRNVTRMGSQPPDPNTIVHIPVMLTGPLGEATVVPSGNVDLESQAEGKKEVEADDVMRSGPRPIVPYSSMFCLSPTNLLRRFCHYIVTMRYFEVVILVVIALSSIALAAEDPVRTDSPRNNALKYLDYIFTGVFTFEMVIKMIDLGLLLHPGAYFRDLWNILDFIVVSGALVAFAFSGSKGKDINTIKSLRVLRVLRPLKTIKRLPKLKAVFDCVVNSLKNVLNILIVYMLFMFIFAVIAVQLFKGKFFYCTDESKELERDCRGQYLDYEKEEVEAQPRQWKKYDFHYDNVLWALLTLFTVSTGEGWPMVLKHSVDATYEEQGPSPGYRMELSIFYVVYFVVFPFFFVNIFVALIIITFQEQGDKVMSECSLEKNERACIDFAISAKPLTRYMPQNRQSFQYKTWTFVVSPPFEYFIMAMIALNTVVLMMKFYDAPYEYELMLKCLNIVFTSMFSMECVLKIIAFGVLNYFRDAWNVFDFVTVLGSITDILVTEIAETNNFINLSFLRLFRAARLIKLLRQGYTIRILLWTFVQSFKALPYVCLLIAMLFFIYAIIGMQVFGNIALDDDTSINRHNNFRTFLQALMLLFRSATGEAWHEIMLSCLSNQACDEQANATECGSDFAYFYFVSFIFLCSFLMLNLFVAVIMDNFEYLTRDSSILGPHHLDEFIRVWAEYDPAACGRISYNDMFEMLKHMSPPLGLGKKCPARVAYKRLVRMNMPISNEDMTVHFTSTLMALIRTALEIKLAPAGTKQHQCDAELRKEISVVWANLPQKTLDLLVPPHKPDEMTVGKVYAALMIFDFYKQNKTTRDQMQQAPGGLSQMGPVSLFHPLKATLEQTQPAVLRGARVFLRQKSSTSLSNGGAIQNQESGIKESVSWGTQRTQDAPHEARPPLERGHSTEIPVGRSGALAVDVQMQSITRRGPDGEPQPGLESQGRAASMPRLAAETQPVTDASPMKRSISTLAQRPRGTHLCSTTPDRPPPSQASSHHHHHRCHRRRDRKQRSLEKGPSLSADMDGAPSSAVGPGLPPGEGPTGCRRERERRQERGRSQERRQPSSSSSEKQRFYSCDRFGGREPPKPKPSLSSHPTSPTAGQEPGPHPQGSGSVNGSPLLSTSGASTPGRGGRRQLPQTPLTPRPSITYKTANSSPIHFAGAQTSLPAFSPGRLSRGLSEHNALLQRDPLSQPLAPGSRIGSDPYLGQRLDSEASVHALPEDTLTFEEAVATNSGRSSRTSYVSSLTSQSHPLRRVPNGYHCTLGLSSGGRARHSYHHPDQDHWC
T4 sequence (Q02410 whole entry): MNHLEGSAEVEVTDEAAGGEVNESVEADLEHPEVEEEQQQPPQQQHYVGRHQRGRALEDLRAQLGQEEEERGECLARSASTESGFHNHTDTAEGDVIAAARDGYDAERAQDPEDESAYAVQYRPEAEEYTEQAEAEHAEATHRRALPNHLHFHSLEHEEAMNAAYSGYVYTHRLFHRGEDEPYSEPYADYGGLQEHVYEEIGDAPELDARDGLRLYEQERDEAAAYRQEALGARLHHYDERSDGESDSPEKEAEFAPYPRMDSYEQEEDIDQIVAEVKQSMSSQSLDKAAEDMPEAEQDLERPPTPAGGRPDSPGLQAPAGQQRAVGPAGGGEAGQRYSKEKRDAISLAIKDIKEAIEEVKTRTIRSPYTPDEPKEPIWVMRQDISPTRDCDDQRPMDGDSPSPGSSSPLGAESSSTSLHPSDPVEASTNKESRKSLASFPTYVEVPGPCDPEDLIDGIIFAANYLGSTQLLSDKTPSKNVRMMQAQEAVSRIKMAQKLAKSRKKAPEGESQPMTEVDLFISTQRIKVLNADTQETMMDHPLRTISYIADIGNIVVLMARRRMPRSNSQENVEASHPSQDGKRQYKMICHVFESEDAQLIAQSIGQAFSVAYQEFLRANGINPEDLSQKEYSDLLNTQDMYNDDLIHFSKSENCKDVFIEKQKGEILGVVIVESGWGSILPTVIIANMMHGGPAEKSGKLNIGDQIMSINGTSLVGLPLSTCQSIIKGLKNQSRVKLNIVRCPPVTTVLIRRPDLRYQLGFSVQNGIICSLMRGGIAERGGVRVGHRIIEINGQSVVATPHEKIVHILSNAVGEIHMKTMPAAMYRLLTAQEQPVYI

[5] = molecular target: T4, Voltage-gated N-type calcium channel alpha-1B subunit/Amyloid beta A4 precursor protein-binding family A member 1; assay: disruptors of Mint-PDZ/N-type channel peptide interaction – biochemical, HTRF, set 2, SAR follow-up (AID 434980); type: functional
[6] = molecular target: T4, Voltage-gated N-type calcium channel alpha-1B subunit/Amyloid beta A4 precursor protein-binding family A member 1; type: protein assay
[7] = molecular target: T4, Voltage-gated N-type calcium channel alpha-1B subunit/Amyloid beta A4 precursor protein-binding family A member 1; type: protein assay; remark: listed apart in the source
Hexokinase HKDC1 = molecular target: T5, Hexokinase HKDC1 (Homo sapiens, UniProt Q2TB90); assay: inhibition of HKDC1 glucose phosphorylation – biochemical, W721R variant, dose response (AID 504729); type: functional
T5 sequence (Q2TB90 whole entry): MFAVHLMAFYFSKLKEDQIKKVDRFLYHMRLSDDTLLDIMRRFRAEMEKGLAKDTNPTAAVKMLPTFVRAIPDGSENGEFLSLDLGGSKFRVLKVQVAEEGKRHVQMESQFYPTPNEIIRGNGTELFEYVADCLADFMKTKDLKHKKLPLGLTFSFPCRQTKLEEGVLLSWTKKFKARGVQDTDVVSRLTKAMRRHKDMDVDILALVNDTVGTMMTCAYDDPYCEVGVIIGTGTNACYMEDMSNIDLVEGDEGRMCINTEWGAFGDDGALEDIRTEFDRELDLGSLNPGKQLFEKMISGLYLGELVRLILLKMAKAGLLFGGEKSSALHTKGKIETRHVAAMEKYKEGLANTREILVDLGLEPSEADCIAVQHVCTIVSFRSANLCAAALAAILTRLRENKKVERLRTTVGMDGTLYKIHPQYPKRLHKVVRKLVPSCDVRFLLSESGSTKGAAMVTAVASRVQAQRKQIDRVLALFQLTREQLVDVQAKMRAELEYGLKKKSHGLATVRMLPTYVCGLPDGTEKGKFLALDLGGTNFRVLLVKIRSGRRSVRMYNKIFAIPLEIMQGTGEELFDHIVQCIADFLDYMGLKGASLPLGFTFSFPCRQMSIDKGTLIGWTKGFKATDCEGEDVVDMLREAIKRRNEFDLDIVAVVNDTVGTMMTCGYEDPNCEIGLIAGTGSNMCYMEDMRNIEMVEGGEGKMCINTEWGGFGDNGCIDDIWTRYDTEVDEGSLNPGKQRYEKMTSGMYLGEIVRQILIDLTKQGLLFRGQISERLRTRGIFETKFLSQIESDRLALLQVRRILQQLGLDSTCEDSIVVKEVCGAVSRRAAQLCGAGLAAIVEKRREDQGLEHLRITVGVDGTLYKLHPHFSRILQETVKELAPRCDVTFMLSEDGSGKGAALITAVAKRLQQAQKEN

[8] = bead-based luminescence quenchers, dual-tagged ARNT – biochemical, AlphaScreen, cherry-pick, artefact control for ARNT-TACC3 interaction inhibitor project, dose response (AID 651705); type: functional;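 also: AlphaScreen bead proximity signal that flags compounds interfering with the detection technology; potency reflects signal decrease which marks the compound as an assay artifact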
[9] = molecular target: T6, Tyrosyl-DNA phosphodiesterase 2 (Homo sapiens, UniProt O95551); assay: potency against TDP2 phosphodiesterase activity – biochemical, epi absorbance, IC50, dose response (AID 743297)
T6 sequence (O95551 whole entry): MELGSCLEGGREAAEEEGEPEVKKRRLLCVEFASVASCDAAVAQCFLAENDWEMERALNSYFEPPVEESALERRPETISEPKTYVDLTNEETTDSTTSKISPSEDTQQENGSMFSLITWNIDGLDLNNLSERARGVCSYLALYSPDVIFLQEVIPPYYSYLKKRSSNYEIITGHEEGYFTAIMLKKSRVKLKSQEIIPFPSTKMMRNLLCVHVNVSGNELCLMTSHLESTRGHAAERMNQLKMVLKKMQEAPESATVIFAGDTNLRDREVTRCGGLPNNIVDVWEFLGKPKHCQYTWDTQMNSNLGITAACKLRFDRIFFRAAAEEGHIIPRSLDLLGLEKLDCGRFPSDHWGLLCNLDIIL

[10] = molecular target: Glucose-6-phosphate 1-dehydrogenase (Homo sapiens, UniProt P11413); assay: inhibition of Homo sapiens G6PD, dose series – biochemical, fluorescence, selectivity assay for P. falciparum G6PD inhibitor project, dose response (AID 504792); type: functional
Chain of Glucose-6-phosphate 1-dehydrogenase (P11413 whole entry): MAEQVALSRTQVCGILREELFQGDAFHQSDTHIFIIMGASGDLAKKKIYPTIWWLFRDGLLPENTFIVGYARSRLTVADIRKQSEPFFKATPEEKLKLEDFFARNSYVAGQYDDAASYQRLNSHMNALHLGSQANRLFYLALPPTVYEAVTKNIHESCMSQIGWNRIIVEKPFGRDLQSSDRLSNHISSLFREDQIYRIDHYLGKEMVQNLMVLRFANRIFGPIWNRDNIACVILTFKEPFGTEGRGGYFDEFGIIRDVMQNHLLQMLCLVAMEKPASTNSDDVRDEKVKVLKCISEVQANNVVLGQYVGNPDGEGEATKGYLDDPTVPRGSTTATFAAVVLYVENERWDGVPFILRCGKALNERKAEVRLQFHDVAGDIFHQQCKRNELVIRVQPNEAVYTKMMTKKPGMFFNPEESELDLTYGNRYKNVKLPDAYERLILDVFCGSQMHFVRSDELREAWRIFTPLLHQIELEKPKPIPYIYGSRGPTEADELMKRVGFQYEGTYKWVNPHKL

[11] = molecular target: T7, Histone-lysine N-methyltransferase NSD2 (Homo sapiens, UniProt O96028); type: biochemical
T7 sequence (O96028 whole entry): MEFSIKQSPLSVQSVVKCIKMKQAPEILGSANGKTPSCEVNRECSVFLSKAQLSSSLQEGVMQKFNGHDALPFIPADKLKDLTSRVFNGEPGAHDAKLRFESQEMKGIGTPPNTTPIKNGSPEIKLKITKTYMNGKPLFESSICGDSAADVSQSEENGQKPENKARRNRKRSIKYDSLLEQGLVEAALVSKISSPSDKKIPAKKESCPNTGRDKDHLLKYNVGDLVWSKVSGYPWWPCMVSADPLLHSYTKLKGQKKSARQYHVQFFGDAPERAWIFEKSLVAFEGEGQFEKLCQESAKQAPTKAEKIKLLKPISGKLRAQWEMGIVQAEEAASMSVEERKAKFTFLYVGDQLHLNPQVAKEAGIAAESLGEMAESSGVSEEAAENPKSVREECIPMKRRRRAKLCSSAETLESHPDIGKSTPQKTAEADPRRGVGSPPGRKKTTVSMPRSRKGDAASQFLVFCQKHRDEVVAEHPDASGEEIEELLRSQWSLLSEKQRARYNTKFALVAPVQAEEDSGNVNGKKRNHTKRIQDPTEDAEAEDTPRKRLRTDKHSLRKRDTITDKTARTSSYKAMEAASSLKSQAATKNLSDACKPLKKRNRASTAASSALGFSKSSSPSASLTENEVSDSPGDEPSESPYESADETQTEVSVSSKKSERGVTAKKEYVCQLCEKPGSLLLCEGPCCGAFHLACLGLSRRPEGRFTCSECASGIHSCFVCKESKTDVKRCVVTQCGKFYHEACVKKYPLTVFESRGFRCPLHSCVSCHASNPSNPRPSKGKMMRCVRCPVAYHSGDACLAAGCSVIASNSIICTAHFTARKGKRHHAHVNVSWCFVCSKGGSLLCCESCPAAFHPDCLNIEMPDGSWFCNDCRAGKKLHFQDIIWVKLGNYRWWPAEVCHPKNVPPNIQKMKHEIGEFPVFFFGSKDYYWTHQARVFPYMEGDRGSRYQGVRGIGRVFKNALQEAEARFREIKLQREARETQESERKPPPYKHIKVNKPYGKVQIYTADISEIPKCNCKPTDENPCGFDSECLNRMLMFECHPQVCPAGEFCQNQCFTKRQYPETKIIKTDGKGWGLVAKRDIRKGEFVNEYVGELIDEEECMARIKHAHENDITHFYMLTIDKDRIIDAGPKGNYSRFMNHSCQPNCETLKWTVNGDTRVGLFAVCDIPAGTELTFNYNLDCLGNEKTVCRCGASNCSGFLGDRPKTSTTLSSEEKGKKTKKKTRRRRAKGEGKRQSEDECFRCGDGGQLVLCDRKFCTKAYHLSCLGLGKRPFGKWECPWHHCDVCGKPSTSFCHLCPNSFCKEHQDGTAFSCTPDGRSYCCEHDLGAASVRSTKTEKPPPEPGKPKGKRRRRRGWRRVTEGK

[12] = molecular target: Cyclin-dependent kinase 5/CDK5 activator 1 (Homo sapiens, UniProt Q00535); assay: blockade of human CDK5 activity – biochemical, cherry-picked samples, set 2, dose response (AID 504545)

SMILES: O=C(COc1ccc2ccc(=O)oc2c1)NCCc1c[nH]c2ccc(F)cc12
AC50 (CAAX prenyl protease 2): 9.47 µM (active) | AC50 (Trypsin): 9.56 µM (active)

SMILES: O=C(O)COc1ccc(/C=C/C(=O)c2ccc(C3CCCCC3)cc2)cc1
IC50 [1]: 2.16 µM (active) | IC50 (Genome polyprotein): 47.7 µM (active)

SMILES: CC(=O)Oc1ccc(N2C(=O)C3C(C2=O)C2(C)C=CC3(C)O2)cc1 (centres undefined)
IC50 [4]: 7.82 µM (active) | IC50 [5]: 6.39 µM (active) | IC50 [6]: 5.05 µM (active) | IC50 [7]: 1.93 µM (active)

SMILES: COc1ccc(C(=O)c2sc(Nc3ccccc3)nc2N)cc1
AC50 [12]: 16.8 µM (active)

More lines, main results first:

Absolute IC50 (XBP1) (X-box-binding protein 1): 10 µM
SMILES: O=C(Nc1ccccc1C(F)(F)F)c1cc(-c2ccc(O)cc2)on1

IC50 (Bcl-2-like protein 10): 7.65 µM (active) | IC50 [2]: 16.8 µM (not active) | IC50 [3]: 1.69 µM (active) | IC50 (Bcl-2-like protein 1): 90.1 µM (not active)
SMILES: CCn1c(SC(C)C(=O)O)nc2sc3c(c2c1=O)CCC3 (centres undefined)

IC50 (Hexokinase HKDC1): 18.5 µM (active) | IC50 [9]: 5.45 µM (active) | IC50 [10]: 33.2 µM (inactive) | AC50 [11]: 0.754 µM (active)
SMILES: CC(N=C1C=C(O)c2cccnc2C1=O)C(O)c1ccccc1 (centres undefined)
AC50 [8]: 111 µM (active)
